In patent publication US10828253B2, “Composition for injection” (HK INNO.N CORPORATION, priority 2017, dated 2020):

Assay: water solubility of the compound of Formula 1
Assay type: physicochemical
Procedure: However, the compound has a very low water solubility (0.02 mg/ml, pH 6.8), which increases (0.7 mg/ml, pH 3.0) under acid conditions, but not enough to have a significant effect. It is water insoluble and has a very low solubility, in particular, under neutral or higher pH environments, so it has a much difficulty in being formulated into preparations through its dissolution and stabilization in aqueous solutions. Also, its degradation products are increased under acid conditions, thus leading to poor stability and causing a restriction on selection of salts. Furthermore, in case of using solubilizers such as surfactants, etc., to improve the solubility, it requires an excessive amount of excipients, thus causing difficulty.

Compound: Cc1nc2c(O[C@H]3CCOc4cc(F)cc(F)c43)cc(C(=O)N(C)C)cc2[nH]1 [Formula 1, (S)-4-((5,7-difluorochroman-4-yl)oxy)-N,N-2-trimethyl-1H-benzo[d]imidazole-6-carboxamide]
- solubility (aqueous buffer, pH 3.0, acid conditions): 700 µg/mL
- solubility (pH 6.8, aqueous buffer): 20 µg/mL
